CN(C)Cc1c[nH]c2ccccc12
solubility (mole fraction)
Conditions	273.15 K	278.15 K	283.15 K	288.15 K	293.15 K	298.15 K	303.15 K	308.15 K	313.15 K
in 1,4-dioxane	–	–	–	0.0465	0.0511	0.0562	0.0623	0.0684	0.0746
in acetone	0.0231	0.026	0.0289	0.0327	0.0364	0.0402	0.0463	0.0523	0.0584
in acetonitrile	0.00447	0.00517	0.00621	0.00736	0.00858	0.00998	0.0116	0.0133	0.0151
in ethanol	0.0207	0.023	0.0254	0.0283	0.0317	0.0355	0.0399	0.0449	0.0508
in ethyl acetate	0.0165	0.0193	0.0219	0.0253	0.029	0.0327	0.0377	0.0428	0.0479
in isopropanol	0.013	0.0153	0.0178	0.0207	0.0235	0.0268	0.0305	0.0341	0.0377
in methanol	0.0274	0.0293	0.0315	0.0341	0.0371	0.0417	0.0474	0.0537	0.0615
in n-butanol	0.0305	0.0337	0.0369	0.0416	0.0464	0.0512	0.0565	0.0617	0.067
in n-octanol	0.0111	0.0132	0.0158	0.0187	0.0218	0.025	0.0284	0.0319	0.036
in n-propanol	0.0284	0.0315	0.0346	0.0381	0.0415	0.046	0.0515	0.0581	0.0629
in toluene	0.00345	0.00408	0.00456	0.00537	0.00647	0.00765	0.00905	0.0107	0.0126
